Ends that are not written are not given here.
How the values were obtained:
GATA-3 promoter [1] = test: ChIP assay, DNMT3b binding; type: cell-based, human; details: compared with control siRNA
Method: (§1) The mouse GATA-3 promoter contains three FoxM1 consensus sequences within 2 kb of the transcriptional start site. Whether FoxM1 directly regulated GATA-3 at the RNA level was investigated using chromatin immunoprecipitation (ChIP) assay. Cells were fixed in 1% formaldehyde for 10 minutes to allow crosslinking and then quenched with […] glycine. For in vivo ChIP assays, single cell suspensions were generated using collagenase/hyaluronidase followed by fixing. Cells were collected and lysed in SDS lysis buffer (1% SDS, 10 mM EDTA, 50 mM Tris pH 8, protease and phosphatase inhibitors). Lysate was sonicated, pre-cleared, and incubated with antibodies against GFP (Clontech, JL-8), GATA-3 (Santa Cruz HG3-31), FoxM1 (Major et al., 2004, “Forkhead box M1B transcriptional activity requires binding of Cdk-cyclin complexes for phosphorylation-dependent recruitment of p300/CBP coactivators” Mol Cell Biol 24: 2649-61), DNMT3b (Imgenex 52A1018), or Rb (Cell Signaling, 4H1) followed by purification with Protein-A and Protein-G Sepharose beads in the presence of salmon sperm DNA (Upstate). Beads were washed and DNA extracted using a PCR purification kit (Qiagen). PCR products were visualized by gel electrophoresis or analyzed using SYBR Green (Bio-Rad), normalized to the IgG control (Santa Cruz Biotechnology).
DNMT3b has been specifically implicated in mammary tumor biology. […]

GATA-3 promoter [2] = test: ChIP assay, Rb binding; type: cell-based, human; details: compared with control siRNA
Method: as §1

SKBR3 resistant cells [3] = test: cell number after FoxM1 siRNA knockdown and HERCEPTIN; type: cell-based, human; details: in conjunction with HERCEPTIN
Method: The source of resistance in these lines was not uniform, as an increase in phosphorylated Akt was only observed in SKBR3 cells. FoxM1 levels in parental and resistant lines were assayed by western blot analysis. Extracts were prepared in lysis buffer containing 1 mM EDTA, 0.15M NaCl, 0.05M Tris-HCl pH 7.5, and 0.5% Triton-X. Phosphatate Inhibitor Cocktail Set II (Calbiochem) and protease inhibitor (Roche) were added before each experiment using the rabbit polyclonal antibody referenced above. Quantification was performed using Image J software (NIH).
Additionally, levels of cell cycle regulators, Polo-like Kinase 1 (1.5-fold) and Cyclin B1 (16.6-fold) were amplified in the resistant line as compared to the parental control line (FIG. 3B). GAPDH is used as a loading control to ensure that the same amount of RNA was added to each reaction. All bands are normalized to GAPDH bands from the same sample and then normalized values from parental and resistant cells can be compared. […] The control (5′ […] 3′, SEQ ID NO:12) and FoxM1 targeting siRNA (5′ […] 3′, SEQ ID NO:9) were both from Dharmacon, and purified using standard desalting methods. Prior to transfection, plates are washed and cells are placed in serum-free media. siRNA was added to a final concentration of 7.5 pm to each plate using Lipofectamine 2000 (Invitrogen) transfection. […]

[4] = tested on: cells with HER2/ErbB2 amplification; details: on average; cited from earlier work
[5] = tested on: polymerized and soluble tubulin fractions of SKBR3-pBabe and SKBR3-FoxM1 expressing lines; test: polymerized vs soluble tubulin fractionation and western blot; type: cell-based, human
Method: In addition, the possibility that FoxM1 induced altered microtubule dynamics was investigated. Paclitaxel has been known to stabilize tubulin, and thus the ratio of polymerized to soluble microtubule fractions was compared. Cell lysates of SKBR3-pBabe and SKBR3-FoxM1 expressing lines untreated or treated with paclitaxel were fractionated to obtain polymerized and soluble tubulin fractions. […] Briefly, cells were seeded at 80% confluency in 24-well plates, collected in hypotonic buffer (1 mM MgCl2, 2 mM EGTA, 0.5% Nonidet P-40, 20 mM Tris-HCl pH 6.8) and centrifuged for 10 minutes at room temperature (14,000 rpm). The supernatant was used as the soluble fraction while the pellet was used as the polymerized fraction.

SKBR3 cells = test: cell viability, CellTiter-Glo Luminescent assay, paclitaxel; type: cell-based, human; details: for IC50: Homo sapiens, TAXOL 24 hours; for cells survived: 0.1 μM, seven days
Method: After seven days of treatment in a low dose of paclitaxel (TAXOL) (0.1 μM), only 25% of SKBR3-pBabe cells survived, while nearly 50% of SKBR3-FoxM1 cells survived (FIG. 4A).

[6] = tested on: MDA-MB-453 resistant cells; test: colony forming assay, ARF-derived peptide and trastuzumab; type: cell-based, human; details: with trastuzumab; peptide 2 μM
Method: (§2) FIGS. 6A and 6B are graphs showing quantitative colony forming assay of parental or resistant SKBR3 and MDA-MB-453 cells treated with either ARF-peptide or mutant peptide (2 μM). […] Also shown below the graphs are images of representative wells of cells from such colony-forming assays.
(§3) The cells were maintained in HERCEPTIN thereafter. […] Quantification was done using Adobe Photoshop.
(§4) Studies have shown that FoxM1 is inhibited by a small peptide that contains a 19-amino acid region of the p19ARF protein (residues 26 to 44) (SEQ ID NO:2). […] Treatment with the ARF-derived peptide and trastuzumab led to a 90% reduction in cell numbers in both SKBR3 and MDA-MB-453 resistant cells as measured by colony forming assays (following the same protocol as described above in Example 5) (FIG. 6A).

SKBR3 resistant cells [7] = test: as above; type: cell-based, human; details: with trastuzumab; peptide 2 μM
Method: as §2, §3, §4

[8] = tested on: SKBR3-pBabe and FoxM1 cells; test: surviving cells after ARF-peptide added to HERCEPTIN, paclitaxel or combination; type: cell-based, human
Method: as §2
The ability of the ARF-peptide to sensitize FoxM1-expressing cells to treatment was also investigated.

[9] = tested on: hepatocellular carcinoma cells; details: mouse; cited from earlier work
[10] = FoxM1-expressing cells, with HERCEPTIN and paclitaxel combination treatment

With “5′ GGACCACUUUCCCUACUUUUU 3′ (listed as RNA, chemistry not given here) [FoxM1 targeting siRNA]” the “DNMT3b binding to GATA-3 promoter at −747 and −1431” value (GATA-3 promoter [1]) was “significantly decreased”, the “Rb binding to GATA-3 promoter” value (GATA-3 promoter [2]) was “could not bind to the GATA-3 promoter” and the “reduction in cell number” value (SKBR3 resistant cells [3]) was “more than 75%”.
For `CC(=O)O[C@H]1C(=O)[C@@]2(C)[C@H]([C@H](OC(=O)c3ccccc3)[C@]3(O)C[C@H](OC(=O)[C@H](O)[C@@H](NC(=O)c4ccccc4)c4ccccc4)C(C)=C1C3(C)C)[C@]1(OC(C)=O)CO[C@@H]1C[C@@H]2O` [paclitaxel], the “higher dose required to produce the same effect” value [4] is listed as 100 fold, the “ratio for β-tubulin” value ([5]; FoxM1-expressing cells after paclitaxel treatment) is listed as “did not show a significant change” and the “α- and β-tubulin distribution” value ([5]; SKBR3-pBabe cells after paclitaxel treatment) is listed as “dramatic shift towards the polymerized fraction”. The IC50 (SKBR3 cells; SK-BR-3, SKBR3 cells transfected with FoxM1-specific siRNA 72 hours) was 10 nM, the IC50 (SKBR3 cells; SK-BR-3, SKBR3 cells transfected with control siRNA 72 hours) was 60 nM and the cells survived (SKBR3 cells; SKBR3-FoxM1 cells) was about 50%. It also gave a cells survived (SKBR3 cells; SKBR3-pBabe cells) of 25%.
In the case of “ARF-derived peptide: cell-penetrating peptide inhibitor of FoxM1 containing a 19-amino acid region of the p19ARF protein (residues 26 to 44) (KFVRSRRPRTASCALAFVN; not fully specified; UniProt Q64364 26-44, looked up, fragment)”, the “reduction in cell numbers” value [6] is reported as 90%, the “reduction in cell numbers” value (SKBR3 resistant cells [7]) is reported as 90% and the cell killing [8, 10] is reported as “more than 97%”. The cells surviving [8, 10] was “less than 3%”, the “cell number compared to mutant peptide” value ([8]; added to HERCEPTIN, paclitaxel, or combination treatment, three days) was “dramatic reduction in cell number” and the “cell killing at the same dosage compared to mutant peptide” value ([8]; pBabe cells, all treatments) was “greater cell killing”. The “proliferation and apoptosis of hepatocellular carcinoma cells in vivo” value [9] was “reduce proliferation and induce apoptosis”.
